How the values were obtained:
[1] = system: IL-1β; test: PBMC assay: inhibition of IL-1β release after LPS stimulation (MSD); assay type: cell-based; conditions: Homo sapiens, PBMC, 6 h, human PBMCs, 100 ng/ml LPS for 6 hrs, MSD, 96 well plates; read-out: IL1β IC50
Outline: (§1)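 Cryopreserved human PBMCs (7.5×10^4/well) in RPMI/10% FBS were preincubated with serially diluted compound for 30 min at 37 °C, then stimulated with 100 ng/ml LPS for 6 h. Supernatant IL-1β and TNF measured by MSD. IC50 derived for IL-1β, EC50 for TNF.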

[2] = system: TNF; test: PBMC assay: TNF cytokine levels after LPS stimulation (MSD); assay type: cell-based; conditions: Homo sapiens, PBMC, 6 h, human PBMCs, 100 ng/ml LPS for 6 hrs
Outline: as §1

Row | SMILES | IC50 [1] | EC50 [2]
1 | CC(C)c1nn(CC(=O)N[C@H]2C[C@@H](O)CN(C)C2)c(=O)c2ccc(C(F)(F)F)cc12 [Final Cpd X122] | 2.68 µM | > 20 µM
2 | CC(C)c1nn(CC(=O)Nc2ccc3cn(C)nc3c2)c(=O)c2ccc(C(F)(F)F)cc12 [Final Cpd X123] | 2.7 µM | > 20 µM
3 | CC1(c2nn(CC(=O)Nc3ccc4nncn4c3)c(=O)c3ccc(C(F)(F)F)cc23)CC1 [Final Cpd X125] | 2.88 µM | > 20 µM
4 | CC(C)c1nn(CC(=O)NC2(C)CC(F)(F)C2)c(=O)c2ccc(C(F)(F)F)cc12 [Final Cpd X126] | 2.94 µM | > 20 µM
5 | CC(C)c1nn(CC(=O)Nc2ccn3ccnc3n2)c(=O)c2ccc(C(F)(F)F)cc12 [Final Cpd X127] | 2.94 µM | > 20 µM
6 | CC(C)c1nn(CC(=O)NC2CCC(C)(C)OC2)c(=O)c2ccc(C(F)(F)F)cc12 (stereo not shown) [Final Cpd X128] | 2.95 µM | > 20 µM
7 | CO[C@H]1CC[C@@H](NC(=O)Cn2nc(C(C)C)c3cc(C(F)(F)F)ccc3c2=O)CC1 [Final Cpd X131] | 3.09 µM | > 20 µM
8 | CC(C)c1nn(CC(=O)Nc2cc(Br)c3ncnn3c2)c(=O)c2ccc(C(F)(F)F)cc12 [Final Cpd X132] | 3.25 µM | > 20 µM
9 | C[C@]1(O)C[C@@H](NC(=O)Cn2nc(C3(F)CC3)c3cc(C(F)(F)F)ccc3c2=O)C1 [Final Cpd X134] | 3.41 µM | > 20 µM
10 | COC(c1nn(CC(=O)Nc2ccc3nncn3c2)c(=O)c2ccc(C(F)(F)F)cc12)C(F)(F)F (stereo not shown) [Final Cpd X135] | 3.44 µM | > 20 µM
11 | CC(C)(F)c1nn(CC(=O)Nc2ccc3nncn3c2)c(=O)c2ccc(C(F)(F)F)cc12 [Final Cpd X136] | 3.77 µM | > 20 µM
12 | CC(C)c1nn(CC(=O)Nc2ccc3nn(C)cc3c2)c(=O)c2ccc(C(F)(F)F)cc12 [Final Cpd X137] | 3.86 µM | > 20 µM
13 | CC(C)c1nn(CC(=O)Nc2ccc3c(c2)ncn3C)c(=O)c2ccc(C(F)(F)F)cc12 [Final Cpd X141] | 4.71 µM | > 20 µM
14 | O=C(Cn1nc(C2(F)CC2)c2cc(C(F)(F)F)ccc2c1=O)Nc1ccc2nncn2c1 [Final Cpd X142] | 4.74 µM | > 20 µM
15 | CCN1CCC(NC(=O)Cn2nc(C(C)C)c3cc(C(F)(F)F)ccc3c2=O)CC1 [Final Cpd X143] | 4.93 µM | > 20 µM
16 | CC(C)Cc1nn(CC(=O)Nc2ccc3nncn3c2)c(=O)c2ccc(C(F)(F)F)cc12 [Final Cpd X144] | 4.95 µM | > 20 µM
17 | CC(C)(F)c1nn(CC(=O)N[C@H]2C[C@@](C)(O)C2)c(=O)c2ccc(C(F)(F)F)cc12 [Final Cpd X145] | 4.99 µM | > 20 µM
18 | CC(C)c1nn(CC(=O)Nc2ccc3cnn(C(F)F)c3c2)c(=O)c2ccc(C(F)(F)F)cc12 [Final Cpd X146] | 5.72 µM | > 20 µM
19 | CC(C)c1nn(CC(=O)Nc2cnn(C)c(=O)c2)c(=O)c2ccc(C(F)(F)F)cc12 [Final Cpd X151] | 7.45 µM | > 20 µM
20 | CCN1CCCC(NC(=O)Cn2nc(C(C)C)c3cc(C(F)(F)F)ccc3c2=O)C1=O (stereo not shown) [Final Cpd X152] | 7.5 µM | > 20 µM
21 | CC(C)c1nn(CC(=O)Nc2ccc(I)nn2)c(=O)c2ccc(C(F)(F)F)cc12 [Final Cpd X154] | 3.09 µM | > 20 µM
22 | CC(C)(F)c1nn(CC(=O)Nc2ccnnc2)c(=O)c2ccc(C(F)(F)F)cc12 [Final Cpd X155] | 7.91 µM | 17.6 µM
23 | CC(C)c1nn(CC(=O)NC2CC(F)(F)C2)c(=O)c2ccc(C(F)(F)F)cc12 [Final Cpd X156] | 8.77 µM | > 20 µM
24 | COC1(c2nn(CC(=O)Nc3ccc4nncn4c3)c(=O)c3ccc(C(F)(F)F)cc23)CC1 [Final Cpd X158] | 9.99 µM | > 20 µM
25 | CC(C)c1nn(CC(=O)Nc2ccc3c(ncn3C)n2)c(=O)c2ccc(C(F)(F)F)cc12 [Final Cpd X160] | 13.4 µM | > 20 µM
26 | CC(C)c1nn(CC(=O)Nc2ccc(C(F)(F)F)nn2)c(=O)c2ccc(C(F)(F)F)cc12 [Final Cpd X161] | 14.2 µM | > 20 µM
27 | CC(C)c1nn(CC(=O)Nc2cc(C#N)c3ncnn3c2)c(=O)c2ccc(C(F)(F)F)cc12 [Final Cpd X162] | 15 µM | > 20 µM

Row | SMILES | IC50 [1] | EC50 [2]
28 | Cc1nnc2cc(NC(=O)Cn3nc(C(C)C)c4cc(C(F)(F)F)ccc4c3=O)ccn12 [Final Cpd X165] | 16.1 µM | > 20 µM
29 | Cc1cc2nccn2cc1NC(=O)Cn1nc(C(C)C)c2cc(C(F)(F)F)ccc2c1=O [Final Cpd X167] | 17.8 µM | > 20 µM
30 | CC(C)CN1CCc2cc(NC(=O)Cn3nc(C(C)C)c4cc(C(F)(F)F)ccc4c3=O)ccc21 [Final Cpd X168] | > 20 µM | > 20 µM
31 | CC(C)c1nn(CC(=O)Nc2ccc3nn(C)nc3c2)c(=O)c2ccc(C(F)(F)F)cc12 [Final Cpd X169] | > 20 µM | > 20 µM
32 | CC(C)c1nn(CC(=O)Nc2ccc3nncn3c2)c(=O)c2ccc(C(F)(F)F)c(C#N)c12 [Final Cpd X170] | > 20 µM | > 20 µM
33 | CCN1CCc2cc(NC(=O)Cn3nc(C(C)C)c4cc(C(F)(F)F)ccc4c3=O)ccc21 [Final Cpd X171] | > 20 µM | > 20 µM
34 | CC(C)c1nn(CC(=O)Nc2ccc3c(c2)CCN3C(C)C)c(=O)c2ccc(C(F)(F)F)cc12 [Final Cpd X173] | > 20 µM | > 20 µM
35 | CC(C)c1nn(CC(=O)Nc2ccc(C(F)F)nn2)c(=O)c2ccc(C(F)(F)F)cc12 [Final Cpd X176] | > 20 µM | > 20 µM
36 | CO[C@H]1CC[C@H](NC(=O)Cn2nc(C(C)C)c3cc(C(F)(F)F)ccc3c2=O)CC1 [Final Cpd X177] | > 20 µM | > 20 µM
37 | CC(C)c1nn(CC(=O)Nc2cc(C(F)(F)F)ncn2)c(=O)c2ccc(C(F)(F)F)cc12 [Final Cpd X178] | > 20 µM | > 20 µM
38 | CC(C)c1nn(CC(=O)Nc2ccc(C3CC3)nn2)c(=O)c2ccc(C(F)(F)F)cc12 [Final Cpd X179] | > 20 µM | > 20 µM
39 | CC(C)(F)c1nn(CC(=O)Nc2ccncn2)c(=O)c2ccc(C(F)(F)F)cc12 [Final Cpd X180] | > 20 µM | > 20 µM
40 | CC(C)c1nn(CC(=O)Nc2ncc3ncn(C)c3n2)c(=O)c2ccc(C(F)(F)F)cc12 [Final Cpd X181] | > 20 µM | > 20 µM
41 | O=C(Cn1nc(C(F)F)c2cc(Br)ccc2c1=O)Nc1ccc2nncn2n1 [X-1000] | 0.122 µM | > 20 µM
42 | O=C(Cn1nc(C2CC2)c2cc(Br)ccc2c1=O)Nc1ccc2nncn2n1 [X-1001] | 0.224 µM | > 20 µM
43 | O=C(Cn1nc(C2CC2)c2cc(Cl)ccc2c1=O)Nc1ccc2nncn2n1 [X-1002] | 0.453 µM | > 20 µM
44 | CC(C)c1nn(CC(=O)Nc2ccc3nncn3n2)c(=O)c2ccc(C(C)(F)F)cc12 [X-1003] | 0.04 µM | 9.89 µM
45 | CC(C)c1nn(CC(=O)Nc2ccc3nncn3n2)c(=O)c2ccc(Br)cc12 [X-1004] | 0.041 µM | > 20 µM
46 | CC(C)c1nn(CC(=O)Nc2ccc3cnn(C)c3n2)c(=O)c2ccc(Br)cc12 [X-1005] | 1.47 µM | > 20 µM
47 | CC(C)c1nn(CC(=O)Nc2ccc3nccn3n2)c(=O)c2ccc(C(C)(F)F)cc12 [X-1006] | 0.128 µM | 4.47 µM
48 | CC(C)c1nn(CC(=O)Nc2ccc3nncn3n2)c(=O)c2ccc(C3(F)CC3)cc12 [X-1007] | 0.015 µM | 2.13 µM
49 | CC(C)c1nn(CC(=O)Nc2ccc3nncn3n2)c(=O)c2ccc(C3CC3)cc12 [X-1008] | 0.033 µM | 2.61 µM
50 | CC(C)c1ccc2c(=O)n(CC(=O)Nc3ccc4nncn4n3)nc(C(C)C)c2c1 [X-1009] | 0.045 µM | 2.83 µM
51 | CC(C)c1nn(CC(=O)Nc2ccc3nncn3n2)c(=O)c2ccc(C(C)(C)F)cc12 [X-1010] | 0.017 µM | 3.11 µM
52 | CC(C)c1nn(CC(=O)Nc2ccc3nccn3n2)c(=O)c2ccc(C(C)(C)F)cc12 [X-1011] | 0.089 µM | 7.56 µM
53 | CC(C)c1nn(CC(=O)Nc2ccc3nncn3n2)c(=O)c2ccc(C3CCC3)cc12 [X-1012] | 0.18 µM | 1.08 µM

From patent US20230202989A1, “COMPOUNDS” (JANSSEN PHARMACEUTICA NV, priority 2020, published 2023)
